The target of test [1] is T1, GABAA receptor subunit combination α2β1θγ1 (Homo sapiens, UniProt P18505+P47869+Q9UN88).
T1 construct: expressed in transfected cells; host or cells: HEK 293 cells, transient, calcium phosphate precipitation
The test can be described thus: Whole cell patch-clamp of HEK 293 cells transiently transfected with human GABA-A receptors, GABA concentration-response. It counts as cell-based. The note with it: HEK 293 cells transiently expressing α2β1θγ1; GABA concentration-response curve. How it is done: (§1) Experiments were performed on HEK 293 cells transiently transfected with human cDNA combinations α2β1 γ1, and α2β1θγ1 (4 μgs of cDNA total per cover-slip) using calcium phosphate precipitation (Chen and Okayama, 1988) as previously described (Hadingham et al, 1993). Glass cover-slips containing the cells in a monolayer culture were transferred to a perspex chamber on the stage of Nikon Diaphot inverted microscope. Cells were continuously perfused with a solution containing 124 mM NaCl, 2 mM KCl, 2 mM CaCl2, 1 mM MgCl2, 1.25 mM KH2PO4, 25 mM NaHCO3, 11 mM D-glucose, at pH 7.2, and observed using phase-contrast optics. Patch-pipettes were pulled with an approximate tip diameter of 2 μm and a resistance of 4MΩ with borosilicate glass and filled with 130 mM CsCl, 10 mM HEPES, 10 mM EGTA, 3 mM Mg^+-ATP, pH adjusted to 7.3 with CsOH. Cells were patch-clamped in whole-cell mode using an Axopatch 200B patch-clamp amplifier. Drug solutions were applied by a double-barrelled pipette assembly, controlled by a stepping motor attached to a Prior manipulator, enabling rapid equilibration around the cell. […] Curves were fitted using a non-linear square-fitting program to the equation f(x)=BMAX/[1+(EC50/x)^n] where x is the drug concentration, EC50 is the concentration of drug eliciting a half-maximal response and n is the Hill coefficient. EC50's were analysed by unpaired students t-test.

In test [2] the target is T2, GABAA receptor subunit combination α2β1γ1 (Homo sapiens, UniProt P18505+P47869).
T2 construct: expressed in transfected cells; host or cells: HEK 293 cells, transient, calcium phosphate precipitation
T2 sequence (P47869 29-451): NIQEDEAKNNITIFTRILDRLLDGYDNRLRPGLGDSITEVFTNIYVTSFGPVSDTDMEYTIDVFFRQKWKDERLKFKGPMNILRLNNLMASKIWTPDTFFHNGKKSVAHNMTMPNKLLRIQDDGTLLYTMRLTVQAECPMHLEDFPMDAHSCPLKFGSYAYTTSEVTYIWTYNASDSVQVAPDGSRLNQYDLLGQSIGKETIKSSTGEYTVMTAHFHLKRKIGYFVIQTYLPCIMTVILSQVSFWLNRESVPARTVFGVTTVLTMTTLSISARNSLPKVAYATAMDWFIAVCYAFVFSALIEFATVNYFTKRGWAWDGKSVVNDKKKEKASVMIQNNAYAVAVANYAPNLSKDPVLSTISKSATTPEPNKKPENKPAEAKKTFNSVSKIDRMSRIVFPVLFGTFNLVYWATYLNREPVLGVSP
T2 sequence (P18505 26-474): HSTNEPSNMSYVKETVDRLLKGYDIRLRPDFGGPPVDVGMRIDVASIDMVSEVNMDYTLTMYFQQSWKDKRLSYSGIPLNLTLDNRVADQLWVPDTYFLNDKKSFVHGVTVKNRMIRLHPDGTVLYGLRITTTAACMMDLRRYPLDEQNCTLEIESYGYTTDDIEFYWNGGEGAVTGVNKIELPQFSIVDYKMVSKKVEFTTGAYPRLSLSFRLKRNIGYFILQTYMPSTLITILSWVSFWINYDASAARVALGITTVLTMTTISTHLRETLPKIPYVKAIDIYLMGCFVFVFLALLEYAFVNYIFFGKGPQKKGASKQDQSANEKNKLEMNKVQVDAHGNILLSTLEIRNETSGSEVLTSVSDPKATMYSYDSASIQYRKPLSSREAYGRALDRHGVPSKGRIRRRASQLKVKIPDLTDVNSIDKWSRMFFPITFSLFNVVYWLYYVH
T2 sequence (Q8N1C3 36-465 partner): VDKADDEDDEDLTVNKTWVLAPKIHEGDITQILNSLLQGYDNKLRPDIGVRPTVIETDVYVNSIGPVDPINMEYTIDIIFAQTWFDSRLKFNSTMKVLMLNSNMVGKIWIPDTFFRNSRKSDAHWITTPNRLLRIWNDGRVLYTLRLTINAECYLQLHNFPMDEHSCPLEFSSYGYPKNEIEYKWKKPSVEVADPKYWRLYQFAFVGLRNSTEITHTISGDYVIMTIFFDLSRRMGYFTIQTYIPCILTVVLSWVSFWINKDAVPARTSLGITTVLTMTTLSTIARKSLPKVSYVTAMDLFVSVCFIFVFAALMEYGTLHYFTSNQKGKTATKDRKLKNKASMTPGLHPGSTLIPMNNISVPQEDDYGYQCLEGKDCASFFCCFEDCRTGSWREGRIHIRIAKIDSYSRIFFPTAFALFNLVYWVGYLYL
The description is as above. Type of test: cell-based. The note with it: HEK 293 cells transiently expressing α2β1γ1; GABA concentration-response curve. How it is done:
as §1

Consider one compound from patent publication US6555341B1, “Human theta subunit of the GABAa receptor” (Merck Sharp & Dohme Ltd., priority 1997, dated 2003).

T1 sequence (Q9UN88 22-632, one chain of several): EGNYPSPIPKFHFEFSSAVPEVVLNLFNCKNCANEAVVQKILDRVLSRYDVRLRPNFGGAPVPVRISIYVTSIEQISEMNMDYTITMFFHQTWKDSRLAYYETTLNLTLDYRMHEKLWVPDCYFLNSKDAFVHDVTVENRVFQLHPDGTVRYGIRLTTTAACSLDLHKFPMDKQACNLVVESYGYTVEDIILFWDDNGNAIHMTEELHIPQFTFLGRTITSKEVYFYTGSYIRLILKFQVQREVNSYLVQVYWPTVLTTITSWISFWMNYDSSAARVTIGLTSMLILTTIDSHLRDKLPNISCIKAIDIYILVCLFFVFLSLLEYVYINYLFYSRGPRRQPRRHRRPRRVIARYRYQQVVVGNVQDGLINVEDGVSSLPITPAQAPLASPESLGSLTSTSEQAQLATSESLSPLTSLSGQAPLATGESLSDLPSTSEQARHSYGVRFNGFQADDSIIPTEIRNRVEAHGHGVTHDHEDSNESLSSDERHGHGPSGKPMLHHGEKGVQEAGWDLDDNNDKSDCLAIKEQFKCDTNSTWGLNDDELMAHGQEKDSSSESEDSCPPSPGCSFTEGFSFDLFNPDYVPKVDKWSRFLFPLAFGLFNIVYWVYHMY

On to `NCCCC(=O)O` [GABA, Gamma-amino butyric acid], for which the “Slope (Hill coefficient)” value in test [1] is 1.5 ± 0.1; in test [2] it was 1.6 ± 0.2.
